# Measured values reported in US11110303B2, “Hapten-enhanced chemoimmunotherapy by ultra-minimum incision personalized intratumoral chemoimmunotherapy” (priority 2014, dated 2021).
# Read-outs that look alike come from different tables or passages of the source.
compound,measurement,setting,value
"Nc1ccn([C@@H]2O[C@H](CO)[C@@H](O)[C@@H]2O)c(=O)n1 [Ara-C alone, Cytosine Arabinoside]",drug retention in tumor,12 hours after intratumoral injection,16%
same,retention rate of Ara-C in tumor,24 hours after intratumoral injection,0%
same,retention rate of Ara-C in tumor,fifteen minutes after intratumoral injection,100%
same,retention rate of Ara-C in tumor,four hours after intratumoral injection,16%
